One data set addresses T1, RXFP1 (Homo sapiens, UniProt Q9HBX9).
T1 construct: expressed in transfected cells
T1 sequence (Q9HBX9 1-757): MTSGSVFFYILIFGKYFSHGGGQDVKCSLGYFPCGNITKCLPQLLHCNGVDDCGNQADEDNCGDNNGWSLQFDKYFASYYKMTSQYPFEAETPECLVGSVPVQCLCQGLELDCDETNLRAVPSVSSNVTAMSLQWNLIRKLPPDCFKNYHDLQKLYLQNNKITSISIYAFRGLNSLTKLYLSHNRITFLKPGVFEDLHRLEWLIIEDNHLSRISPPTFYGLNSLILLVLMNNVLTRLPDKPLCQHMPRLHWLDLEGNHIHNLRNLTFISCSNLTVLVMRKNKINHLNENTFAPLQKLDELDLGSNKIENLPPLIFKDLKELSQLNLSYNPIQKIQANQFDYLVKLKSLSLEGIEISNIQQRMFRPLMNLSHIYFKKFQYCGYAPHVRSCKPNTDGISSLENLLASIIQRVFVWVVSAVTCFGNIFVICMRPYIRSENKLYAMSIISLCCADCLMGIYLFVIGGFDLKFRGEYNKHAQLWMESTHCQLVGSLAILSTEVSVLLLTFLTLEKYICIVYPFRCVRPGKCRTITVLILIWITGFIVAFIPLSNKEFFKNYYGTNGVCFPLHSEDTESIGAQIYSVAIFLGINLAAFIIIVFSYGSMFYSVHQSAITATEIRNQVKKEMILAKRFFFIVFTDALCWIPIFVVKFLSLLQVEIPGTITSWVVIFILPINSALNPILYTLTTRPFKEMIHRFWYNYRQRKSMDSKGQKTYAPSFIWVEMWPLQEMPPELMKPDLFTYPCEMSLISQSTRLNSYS
As to the kind of experiment: RXFP1 cAMP assay in HEK293-RXFP1 cells (HTRF). The format is cell-based. Particulars: percentage of the maximal receptor activation induced by high concentrations of forskolin; Tables 1-7; read-out: Max Response. As for the experimental part:
The RXFP1 receptor couples to the Gs protein, and activation of the receptor results in stimulation of cAMP production. […] The TR-FRET between the K-α-cAMP and cAMP-d2 is disrupted by cAMP in the cell lysates, thus allowing TR-FRET detection in a homogenous format that is suitable for HTS. […] The primary screen was carried out in 1536-well format, however, because of a more robust signal to background ratio, all subsequent follow-up experiments were carried out in 384-well format.
For the primary screen, HEK293-RXFP1 cells were seeded at 2,000 cells/well in 3 μL/well media with a MultiDrop Combi dispenser (Thermo Scientific, Logan, Utah), and allowed to attach overnight at 37° C., 5% CO2. […] The cells were allowed to be stimulated with the compounds for 30 minutes at 37° C., 5% CO2, after which, 1 μL/well of each HTRF detection reagent was dispensed with a BioRAPTR FRD dispenser. The detection reagents were diluted before addition as follows: K-α-cAMP antibody at 1:20 and cAMP-d2 at 1:18 in HTRF lysis buffer (supplied by the assay kit). The plates were incubated for 30 minute at room temperature, and then the signal was read on a ViewLux plate reader (PerkinElmer, Waltham, Mass.).
The assay was run according to the following protocol:
Max Response indicates what the maximal amount of functional activity induced by the compound is, as a percentage of the maximal receptor activation induced by high concentrations of forskolin.

A short description of data set [1]: ATP Cytotoxicity assay (ATPLite) in HEK293-RXFP1 cells. Particulars: human, inactive = Maximum response less than 30%, read-out: ATP Tox. EC50 (μM, Max. Resp.): EC50. The format is cell-based. Here is the method: This follow-up assay was conducted to measure the effect of compounds on cell viability by measuring ATP levels (ATPLite™). ATPLite™ is an Adenosine TriPhosphate (ATP) monitoring system based on firefly (Photinus pyralis) luciferase. The level of ATP in a metabolically active cell is a general marker for its viability. ATP levels are often reduced during necrosis or apoptosis. In this assay, the luciferase enzyme catalyzes the conversion of the added substrate D-luciferin to oxyluciferin and light with ATP. Thus, the emitted light is proportional to the ATP concentration. […] After compound incubation, the levels of ATP in each well were measured with the addition of the ATPLite assay reagent.

The next data set has as its system cAMP in THP-1 cells. As to the kind of experiment: cyclic AMP assay in THP-1 cells. The following applies: Homo sapiens, THP-1, 0.5 h. The format is cell-based. As for the experimental part:
This Example illustrates the cyclic AMP assay in THP-1 cells. THP-1 cells were propagated in RPMI-1640 supplemented with 20% FBS, 0.05 mM β-mercaptoethanol, 100 U/mL penicillin and 100 μg/mL streptomycin at 37° C. in 5% CO2. Before assaying for cAMP response, cells were serum starved in RPMI-1640 supplemented with 0.05 mM (3-mercaptoethanol, 100 U/mL penicillin and 100 μg/mL streptomycin at 37° C. in 5% CO2 for 16 hrs. For 384-well format assays, cells were seeded as 30,000 cells/well in 30 μL/well media with a MultiDrop Combi dispenser (Thermo Scientific, Waltham, Mass.). Subsequently, 2 μL/well of 1.6 mM Ro 20-1724 and 160 uM forskolin in PBS+ (DPBS, 1 mM CaCl2, 0.5 mM MgCl2, 0.05% BSA, 0.005% Tween 20) was dispensed using a BioRAPTR FRD dispenser (Beckman Coulter, Brea, Calif.). Immediately after, 0.25 μL/well of compound solutions in DMSO was dispensed with CyBi-well dispenser (CyBio, Jena, Germany). The cells were allowed to be stimulated with compounds for 30 min at 37° C. in 5% CO2, after which, 8 μL/well of each HTRF cAMP HiRange kit (CisBio, Bedford, Mass.) detection reagent was dispensed with a BioRAPTR FRD dispenser. The detection reagents were diluted as such: K-α-cAMP antibody at 1:20 and cAMP-d2 at 1:18 in HTRF lysis buffer (supplied by the assay kit). The plates were incubated for 30 min at room temperature before the signal was read on an Envision plate reader (PerkinElmer, Waltham, Mass.).

Another data set has as its target T2, RXFP2 (Homo sapiens, UniProt Q8WXD0).
T2 construct: expressed in transfected cells
As to the kind of experiment: RXFP2 cAMP assay in HEK293-RXFP2 cells. The format is cell-based. The following applies: for Emax: 0.5 h, read-out: RXFP2 AC50 (μM, Max. Resp.): Max. Resp.; for AC50: HEK293-RXFP2 cells, inactive = Maximum response less than 30%, read-out: RXFP2 AC50 (μM, Max. Resp.): AC50. As for the experimental part:
HEK293 cells stably transfected with RXFP2, the cognate receptor for another relaxin family peptide, insulin-like 3, (HEK293-RXFP2) was used to test compound specificity towards the RXFP1 receptor. For this assay, cells were seeded at 8,000 cells/well in 30 µL/well of media with a MultiDrop Combi dispenser (Thermo Scientific), and allowed to attach overnight at 37° C., 5% CO2. Next, 2 µL/well of 1.6 mM Ro 20-1724 solution in PBS+(DPBS, 1 mM CaCl2, 0.5 mM MgCl2, 0.05% BSA, 0.005% Tween 20) were dispensed using a BioRAPTR FRD dispenser (Beckman Coulter, Brea, Calif.), followed addition of 0.25 μL/well of compound solution in DMSO with CyBi-well dispenser (CyBio, Jena, Germany). The cells were allowed to be stimulated with the compounds for 30 minutes at 37° C., 5% CO2, after which, 8 μL/well of each HTRF detection reagent (diluted according to assay kit directions in HTRF lysis buffer) was dispensed with a BioRAPTR FRD dispenser. The plates were incubated for 30 minute at 37° C., and then the signal was read on a ViewLux plate reader (PerkinElmer, Waltham, Mass.).

The target in a further data set is T3, vasopressin receptor 1b (Homo sapiens, UniProt P47901).
T3 construct: expressed in transfected cells
T3 sequence (P47901 1-424): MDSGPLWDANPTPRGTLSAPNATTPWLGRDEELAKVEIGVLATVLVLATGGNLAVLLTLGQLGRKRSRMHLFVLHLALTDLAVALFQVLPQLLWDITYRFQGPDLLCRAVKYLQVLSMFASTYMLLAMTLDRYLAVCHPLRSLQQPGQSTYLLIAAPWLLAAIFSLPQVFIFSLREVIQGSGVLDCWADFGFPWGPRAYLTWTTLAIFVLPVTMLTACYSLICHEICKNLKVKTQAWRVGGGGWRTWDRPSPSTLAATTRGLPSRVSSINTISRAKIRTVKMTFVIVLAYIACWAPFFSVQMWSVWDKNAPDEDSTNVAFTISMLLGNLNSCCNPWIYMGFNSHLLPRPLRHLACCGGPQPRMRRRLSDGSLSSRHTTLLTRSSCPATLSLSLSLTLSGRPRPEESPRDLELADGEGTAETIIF
The data set is described as follows: V1b cAMP assay in HEK293-V1b cells. The format is cell-based. Particulars: inactive = Maximum response less than 30%. Here is the method: HEK293 stably transfected with a nonrelated G protein coupled receptor, vasopressin receptor 1b (HEK293-V1b), were used as an additional counter screen to eliminate compounds that increase cAMP HTRF signal through non-RXFP1 dependent mechanisms. For this assay, cells were seeded at 8,000 cells/well in 30 µL/well media with a MultiDrop Combi dispenser (Thermo Scientific, Logan, Utah), and allowed to attach overnight at 37° C., 5% CO2. Next, 2 μL/well of 1.6 mM Ro 20-1724 solution in PBS+(DPBS, 1 mM CaCl2, 0.5 mM MgCl2, 0.05% BSA, 0.005% Tween 20) was dispensed using a BioRAPTR FRD dispenser (Beckman Coulter, Brea, Calif.), followed by additional of 0.25 μL/well of compound solution in DMSO with CyBi-well dispenser (CyBio, Jena, Germany). The cells were allowed to be stimulated with the compounds for 30 minutes at 37° C., 5% CO2, after which, 8 μL/well of each HTRF detection reagent (diluted according to assay kit directions in HTRF lysis buffer) was dispensed with a BioRAPTR FRD dispenser. The plates were incubated for 30 minute at room temperature, and then the signal was read on a ViewLux plate reader (PerkinElmer, Waltham, Mass.).

A further data set is described as follows: PBS solubility. The format is physicochemical.

Molecules are shown by their SMILES. Converted amounts (≈) assume the structure as drawn.

T2 sequence (Q8WXD0 whole entry, species assumed): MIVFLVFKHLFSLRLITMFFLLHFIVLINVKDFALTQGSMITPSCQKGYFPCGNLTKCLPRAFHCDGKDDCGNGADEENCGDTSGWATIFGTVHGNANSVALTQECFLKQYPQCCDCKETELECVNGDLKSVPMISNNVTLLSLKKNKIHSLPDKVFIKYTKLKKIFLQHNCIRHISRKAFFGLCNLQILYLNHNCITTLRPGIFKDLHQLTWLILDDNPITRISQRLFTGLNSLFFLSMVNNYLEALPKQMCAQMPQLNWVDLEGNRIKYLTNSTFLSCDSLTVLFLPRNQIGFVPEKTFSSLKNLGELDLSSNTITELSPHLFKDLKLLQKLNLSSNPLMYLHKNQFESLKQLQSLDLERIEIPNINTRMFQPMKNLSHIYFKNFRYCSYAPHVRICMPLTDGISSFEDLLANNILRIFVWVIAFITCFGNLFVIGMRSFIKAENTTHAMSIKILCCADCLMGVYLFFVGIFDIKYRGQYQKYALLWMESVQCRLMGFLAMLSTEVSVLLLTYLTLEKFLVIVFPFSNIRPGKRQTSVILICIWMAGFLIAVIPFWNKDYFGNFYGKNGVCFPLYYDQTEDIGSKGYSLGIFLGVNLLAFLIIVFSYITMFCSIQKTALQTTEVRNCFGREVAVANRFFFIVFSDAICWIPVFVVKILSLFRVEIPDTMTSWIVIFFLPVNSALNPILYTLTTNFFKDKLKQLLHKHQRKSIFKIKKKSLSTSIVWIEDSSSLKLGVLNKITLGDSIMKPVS

`CCCOc1ccccc1C(=O)Nc1ccccc1C(=O)Nc1cccc(S(=O)(=O)C(F)(F)F)c1` [Example 179]: at RXFP1, the Emax is 98%. Moreover, the EC50 at 72 h in data set [1] turned out to be 9.4 µM.

Compound `CCOc1ccccc1C(=O)Nc1ccccc1C(=O)Nc1cccc(S(=O)(=O)C(F)(F)F)c1` [Example 174, 2-Ethoxy-N-(2-((3-((trifluoromethyl)sulfonyl)phenyl)carbamoyl)phenyl)benzamide] returned an EC50 in the data set with cAMP in THP-1 cells of 362 nM. Further, on RXFP2, the Emax worked out at 38% and the AC50 stood at 7.47 µM. The “V1b AC50 (μM, Max. Resp.): AC50” value on vasopressin receptor 1b was “inactive^a”. Further, the “PBS Solubility” value in the data set “PBS solubility” is less than 1.1 µM.

Take `COc1ccccc1C(=O)Nc1ccccc1C(=O)Nc1cccc(SC(F)(F)F)c1` [Example 158]: the Emax at RXFP1 amounted to 99%. Further, on RXFP2, the Emax turned out to be 54% and the AC50 is 3.34 µM. The EC50 at 72 h in data set [1] came out at 3.74 µM. Besides, in “PBS solubility” (aqueous buffer), the concentration in solution (solubility) was 2.9 µM (≈ 1.29 µg/mL).

For the origin of these results see US10125112B2, “Modulators of the relaxin receptor 1” (The United States of America, as Represented by the …, priority 2012, dated 2018).
